Columns and labels:
[1] = test system: ginsenoside glycosidases from A. niger; assay: Hydrolysis of ginsenosides with crude ginsenoside glycosidases from A. niger, products measured by TLC; assay type: biochemical, Aspergillus niger; settings: pH 5, 30° C., 18 hours
Protocol: Aspergillus niger FFCCDL-48 g was cultured in a medium containing 1% ginseng extracts and 3% wheat bran extracts at 30° C. for 54 hours. Cells were removed by centrifugation, after which (NH4)2SO4 powder was added to 2000 ml of the cell-free supernatant with stirring to 65% saturation. The solution was stored overnight at 4° C. and precipitated proteins were collected by centrifugation, resuspended in 80 ml of distilled water and dialyzed against 0.01M acetate buffer pH 5. Insolubles were removed by centrifugation, and the solution was adjusted to 200 ml with 0.01 M acetate buffer pH 5. The crude enzyme solution may be used to hydrolyze ginsenosides or to purify the enzymes.
100 mg each of ginsenosides Rb1, Rb2, Rc and Rd and 10 mg of ginsenoside Rg3 were dissolved in separate tubes containing 10 ml of 0.01M acetate buffer pH 5. 10 ml of the crude enzyme solution obtained in 1.1 was added to each tube and allowed to react at 30° C. for 18 hours. Then 10 ml of n-butanol was added to stop the reactions. The products were measured by thin layer chromatography (TLC) (Silica gel 60-F254, Merck; chloroform:methanol:water 70:30:5).
Experiments were carried out to explore the effects of temperature, pH, metal ions and reaction time on the enzyme reaction, in order to further characterize the enzymes.
100 mg of ginsenoside Rb1 was used in a reaction under the conditions as described in 1.2 and the effect of temperature was shown in Table 2.

[2] = test system: bacterial ginsenoside glycosidases; assay: Hydrolysis of Rd with ginsenoside glycosidases from bacteria; assay type: biochemical, Bacillus sp. JF; settings: 0.5% Rd in acetate buffer containing 20% ethanol, 70° C., 16 hours
Protocol: Thermophilic and aerobic Bacillus sp. JF (Fengxie Jin et al., J. Gen. Appl. Microbiol., 36, 415-434, 1990) was cultured with aeration and stirring in a medium containing 0.5% by weight of ginseng extracts, 1% by weight of wheat bran extracts and 0.3% tryptone with a pH of 7.2 at 60° C. for 36 hours. Cells were removed by centrifugation and 3000 ml of 95% ethanol was added to 1000 ml of the cell-free supernatant. The solution was allowed to stand at 4° C. overnight and then centrifuged to collect the pellets. The enzyme protein pellets were dissolved in 50 ml of 0.01M acetate buffer pH 5. Insoluble materials were removed by centrifugation and a crude enzyme solution was obtained.
10 ml of the enzyme solution was allowed to react with 10 ml of 0.5% Rd in acetate buffer containing 20% ethanol at 70° C. for 16 hours. […] The enzymes can also hydrolyze β-(1→2)-glucoside of Rg3 to give Rh2.

CC(C)=CCC[C@](C)(O[C@@H]1O[C@H](CO)[C@@H](O)[C@H](O)[C@H]1O)[C@H]1CC[C@]2(C)[C@@H]1[C@H](O)C[C@@H]1[C@@]3(C)CC[C@H](O[C@@H]4O[C@H](CO)[C@@H](O)[C@H](O)[C@H]4O[C@@H]4O[C@H](CO)[C@@H](O)[C@H](O)[C@H]4O)C(C)(C)[C@@H]3CC[C@]12C [Rd, ginsenoside Rd]
Percentage of C—K in the reaction product [1]: 25%
Percentage of F2 in the reaction product [1]: 50%
Percentage of Rd in the reaction product [1]: 15%
Percentage of Rh2 in the reaction product [1]: 5%
Percentage of aglycone in the reaction product [1]: 5%
Rd converted to ginsenoside F2 [2]: 60%

From patent US7759101B2, “Ginsenoside glycosidases hydrolyzing ginsenoside sugar moieties and uses thereof” (priority 2000, dated 2010)
